Data taken from PMC8311653, “Design, Synthesis, In Vitro and In Vivo Characterization of Selective NKCC1 Inhibitors for the Treatment of Core Symptoms in Down Syndrome” (Journal of Medicinal Chemistry, 2021).
Values after ≈ are worked out from the molar mass of the structure shown. “Also recorded” adds a separate entry of the source.

What was measured:
[1] = In vitro metabolic stability in mouse liver microsomes; settings: tissue homogenate, pH 7.4
Method: 1. Aqueous kinetic solubility. […]
3. In vitro mouse microsomial stability. […]
microsomes (Sekisui Xenotech, LCC), 0.1M Tris-HCl buffer (pH 7.4), and 10% DMSO. The final […]
After pre-incubation, the cofactors (NADPH, G6P, G6PDH, MgCl2 pre-dissolved in 0.1M Tris-HCl) were added to the incubation mixture and the incubation was continued at 37 °C for 1h. At each time point (0, 5, 15, 30, 60 min), 30µL of incubation mixture was diluted with 200 µL cold acetonitile spiked with 200 nM of warfarin as internal standard, followed by centrifugation at 3500 g for 30 min. The supernatant was further diluted with H2O (1:1) for analysis.
An aliquot of 200 µl of the supernatant was removed, and the concentration of the test compound was […]
quantified by LC-MS/MS. The percentage of the test compound remaining at each time point relative […]
to t=0 was calculated. The half-lives (t½) were determined by a one-phase decay equation using a […]
non-linear regression of compound concentration vs time.

[2] = Aqueous kinetic solubility in PBS pH 7.4; format: physicochemical; settings: phosphate buffered saline (PBS); aqueous kinetic solubility from 10 mM DMSO solution in PBS pH 7.4; target concentration 250 μM (final DMSO 2.5%)
Method: 1. Aqueous kinetic solubility.
30 µL aliquots of 10 mM DMSO stock solution of the test compound were incubated in Phosphate
Buffered Saline (PBS) at pH 7.4 at 25°C for 24h. After centrifugation the dissolved compound in the
supernatant was quantified by LC-MS/MS.
Aqueous kinetic solubility was determined by UV quantification at
215 nm. […]

[3] = target: T1, NKCC1 (Homo sapiens, UniProt P55011); assay: Cl- influx assay in NKCC1-transfected HEK293 cells; format: cell-based; settings: for inhibition at 10 µM: HEK293, read-out: Inhibition 10 μM Cl- influx (%); for inhibition at 100 µM: HEK293, read-out: Inhibition 100 μM Cl- influx (%); for Inhibition 10 μM Cl- influx (%) / Inhibition 100 μM Cl- influx (%): NKCC1-transfected HEK293 cells
T1 construct: host or cells: HEK293
T1 sequence (P55011 1-1212): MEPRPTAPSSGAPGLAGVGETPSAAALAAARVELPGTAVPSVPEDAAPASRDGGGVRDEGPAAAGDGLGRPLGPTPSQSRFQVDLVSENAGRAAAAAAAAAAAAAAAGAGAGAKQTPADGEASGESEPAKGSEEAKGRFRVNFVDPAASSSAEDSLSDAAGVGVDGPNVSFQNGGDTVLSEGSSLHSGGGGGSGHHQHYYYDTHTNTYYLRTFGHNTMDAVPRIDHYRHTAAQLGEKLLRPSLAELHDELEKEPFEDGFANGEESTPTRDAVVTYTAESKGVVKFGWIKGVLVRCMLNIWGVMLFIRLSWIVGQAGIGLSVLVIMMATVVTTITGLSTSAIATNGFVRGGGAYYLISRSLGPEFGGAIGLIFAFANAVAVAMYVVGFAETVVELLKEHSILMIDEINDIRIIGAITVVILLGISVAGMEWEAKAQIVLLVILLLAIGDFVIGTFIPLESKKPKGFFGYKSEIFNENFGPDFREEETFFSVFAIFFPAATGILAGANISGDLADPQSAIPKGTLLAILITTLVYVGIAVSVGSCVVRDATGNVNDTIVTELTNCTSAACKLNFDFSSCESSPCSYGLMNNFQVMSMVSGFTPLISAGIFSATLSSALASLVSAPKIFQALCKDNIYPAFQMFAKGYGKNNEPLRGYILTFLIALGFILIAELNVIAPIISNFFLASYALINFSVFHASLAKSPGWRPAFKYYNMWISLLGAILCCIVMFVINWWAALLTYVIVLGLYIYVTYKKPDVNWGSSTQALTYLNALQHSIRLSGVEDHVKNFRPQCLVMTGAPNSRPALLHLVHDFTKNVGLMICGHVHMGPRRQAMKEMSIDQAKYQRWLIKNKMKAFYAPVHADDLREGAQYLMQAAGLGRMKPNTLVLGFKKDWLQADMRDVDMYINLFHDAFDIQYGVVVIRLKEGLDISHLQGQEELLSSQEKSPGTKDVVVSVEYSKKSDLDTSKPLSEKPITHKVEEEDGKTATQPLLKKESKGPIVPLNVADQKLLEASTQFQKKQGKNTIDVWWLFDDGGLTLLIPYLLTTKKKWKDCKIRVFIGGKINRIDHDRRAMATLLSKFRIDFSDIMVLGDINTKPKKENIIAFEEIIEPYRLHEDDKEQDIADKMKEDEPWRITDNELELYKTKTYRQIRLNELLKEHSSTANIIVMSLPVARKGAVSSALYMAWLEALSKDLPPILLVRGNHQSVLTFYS
Method: HEK293 cells were cultured in Dulbecco’s modified Eagle’s medium (DMEM) supplemented with 10% fetal bovine serum, 1% L-glutamine, 100 U/mL penicillin, and 100 μg/mL streptomycin and maintained at 37 °C in a 5% CO2 humidified atmosphere. To assess NKCC1 and NKCC2 activity (Cl^– influx assay), 3 million HEK cells were plated in a 10 cm cell-culture dish and transfected with a transfection mixture comprising 5 mL of DMEM, 4 mL of Opti-MEM, 8 μg of DNA plasmid coding for NKCC1 (PRK-NKCC1 obtained from Medical Research Council and the University of Dundee), NKCC2 (OriGene plasmid #RC216145) subcloned in PRK5 plasmid, or mock control (empty vector), together with 8 μg of a plasmid coding for the Cl^–-sensitive variant of the membrane-targeted fluorescent protein YFP, mbYFPQS (Addgene plasmid #80742),[53] and 32 μL of Lipofectamin 2000. To assess KCC2 activity (Tl influx assay), cells were transfected with 8 μg of KCC2[54] subcloned in the PRK5 plasmid or mock control (empty vector) and 16 μL of Lipofectamin 2000. After 4 h, the cells were collected and plated in 96-well black-walled, clear-bottomed plates at a density of 2.5 × 10^4. After 48 h, cells were used for the Cl^– or Tl influx assays. All reagents were purchased from Life Technologies, unless otherwise specified.
Transfected cells were treated with 10 μM or 100 μM bumetanide (as positive controls), DMSO (as the negative control), or with each of our compounds in 100 μL/well of a Cl^–-free hypotonic solution (67.5 mM Na^+ gluconate, 2.5 mM K^+ gluconate, 15 mM HEPES pH 7.4, 50 mM glucose, 1 mM Na2HPO4, 1 mM NaH2PO4, 1 mM MgSO4, and 1 mM CaSO4). After 30 min of incubation, plates were loaded into a Victor 3V (PerkinElmer) multiplate reader equipped with an automatic liquid injector system, and fluorescence of Cl^–-sensitive mbYFPQS was recorded with excitation at 485 nm and emission at 535 nm. For each well, fluorescence was first recorded for 20 s of the baseline and for 60 s after delivery of a NaCl concentrated solution (74 mM final concentration in the assay well). Fluorescence of Cl^–-sensitive mbYFPQS is inversely correlated to the intracellular Cl^– concentration;[53] therefore, chloride influx into the cells determined a decrease in mbYFPQS fluorescence. To represent the fluorescent traces in time, we normalized the fluorescence value for each time point to the average of the fluorescence value of the first 20 s of the baseline (ΔF/F0). To quantify the average effects as represented by the bar plots, we expressed the decrease in fluorescence upon NaCl application as the average of the last 10 s of ΔF/F0 normalized traces. Moreover, for each experiment, to account for the contribution of Cl^– changes that were dependent on transporters/exchangers other than NKCC1 or NKCC2, we subtracted the value of the last 10 s of ΔF/F0 normalized traces obtained from mock-transfected cells (either control or treated) from the respective ΔF/F0 value obtained from the cells transfected with NKCC1 or NKCC2. We then presented in the figures all the data as a percentage of the fluorescence decrease versus the value of the control DMSO.

Row | SMILES | half-life at 5 μM [1] [min] | solubility at 24 h [2] [µM] | inhibition at 10 µM [3] [%] | inhibition at 100 µM [3] [%] | Inhibition 10 μM Cl- influx (%) [3] | Inhibition 100 μM Cl- influx (%) [3]
1 | CCCCCCNc1ccc([N+](=O)[O-])cc1S(=O)(=O)NC [Compound 3, 2-(Hexylamino)-N-methyl-5-nitro-benzenesulfonamide] | < 5 | 1 (≈ 0.315 µg/mL) | 6.4 ± 3.4 | 29.4 ± 2.8 | – | –
2 | CNS(=O)(=O)c1cc([N+](=O)[O-])ccc1NCCC(C)(C)C [Compound 4, 2-(3,3-Dimethylbutylamino)-N-methyl-5-nitro-benzenesulfonamide] | 6 | 3 (≈ 0.946 µg/mL) | 17.7 ± 3.9 | 28.7 ± 4.4 | – | –
3 | CCCCNc1ccc([N+](=O)[O-])cc1S(N)(=O)=O [Compound 5, 2-(Butylamino)-5-nitro-benzenesulfonamide] | 6 | 85 (≈ 23.2 µg/mL) | – | 4.7 ± 13.3 | Inactive | –
4 | CCCCCCNc1ccc([N+](=O)[O-])cc1S(N)(=O)=O [Compound 6, 2-(Hexylamino)-5-nitro-benzenesulfonamide] | < 5 | 6 (≈ 1.81 µg/mL) | – | 3.8 ± 5.6 | no inhibitory activity; also recorded: Inactive | –
5 | CCCCCCCCNc1ccc([N+](=O)[O-])cc1S(N)(=O)=O [Compound 7, 5-Nitro-2-(octylamino)benzenesulfonamide] | < 5 | < 1 | 0.3 ± 2.9 | 5.8 ± 6.8 | – | –
6 | CC(C)(C)CCNc1ccc([N+](=O)[O-])cc1S(N)(=O)=O [Compound 8, 2-(3,3-Dimethylbutylamino)-5-nitro-benzenesulfonamide] | – | – | – | 14.5 ± 10.6 | Inactive | –
7 | CCCCNc1ccc([N+](=O)[O-])cc1S(=O)(=O)NC [Compound 9, 2-(Butylamino)-N-methyl-5-nitro-benzenesulfonamide] | – | – | – | 13.3 ± 11.4 | Inactive | –
8 | CCCCCCCCNc1ccc([N+](=O)[O-])cc1S(=O)(=O)NC [Compound 10, N-Methyl-5-nitro-2-(octylamino)benzenesulfonamide] | – | – | – | – | Inactive | Inactive
9 | CCCCNc1ccc([N+](=O)[O-])cc1S(=O)(=O)N(C)C [Compound 11, 2-(Butylamino)-N,N-dimethyl-5-nitro-benzenesulfonamide] | – | – | – | 15.2 ± 9.6 | Inactive | –
10 | CCCCCCNc1ccc([N+](=O)[O-])cc1S(=O)(=O)N(C)C [Compound 12, 2-(Hexylamino)-N,N-dimethyl-5-nitro-benzenesulfonamide] | < 5 | 1 (≈ 0.329 µg/mL) | – | 4.9 ± 6.8 | Inactive | –
11 | CCCCCCCCNc1ccc([N+](=O)[O-])cc1S(=O)(=O)N(C)C [Compound 13, N,N-Dimethyl-5-nitro-2-(octylamino)benzenesulfonamide] | – | – | – | – | Inactive | Inactive
12 | CN(C)S(=O)(=O)c1cc([N+](=O)[O-])ccc1NCCC(C)(C)C [Compound 14, 2-(3,3-Dimethylbutylamino)-N,N-dimethyl-5-nitro-benzenesulfonamide] | – | – | 10 ± 4.9 | 17 ± 11.9 | – | –
13 | CCCCNc1ccc(C(=O)O)cc1S(N)(=O)=O [Compound 15, 4-(Butylamino)-3-sulfamoyl-benzoic Acid] | – | – | – | 6.4 ± 5.3 | Inactive | –
14 | CCCCCCNc1ccc(C(=O)O)cc1S(N)(=O)=O [Compound 16, 4-(Hexylamino)-3-sulfamoyl-benzoic Acid] | > 60 | 238 (≈ 71.5 µg/mL) | – | 4.9 ± 3.7 | Inactive | –
15 | CC(C)(C)CCNc1ccc(C(=O)O)cc1S(N)(=O)=O [Compound 18, 4-(3,3-Dimethylbutylamino)-3-sulfamoyl-benzoic Acid] | – | – | – | 5.1 ± 4.9 | Inactive | –
16 | CCCCNc1ccc(C(=O)O)cc1S(=O)(=O)NC [Compound 19, 4-(Butylamino)-3-(-N-methylsulfamoyl)benzoic Acid] | – | – | 6.4 ± 2.1 | 6.2 ± 5.7 | – | –
17 | CNS(=O)(=O)c1cc(C(=O)O)ccc1NCCC(C)(C)C [Compound 22, 4-(-N-3,3-Dimethylbutylamino)-3-(methylsulfamoyl)benzoic Acid] | – | – | – | 2.6 ± 3.5 | Inactive | –
18 | CCCCNc1ccc(C(=O)O)cc1S(=O)(=O)N(C)C [Compound 23, 4-(Butylamino)-3-(-N,N-dimethylsulfamoyl)benzoic Acid] | – | – | 2.6 ± 2.8 | 15.6 ± 5.4 | – | –
19 | COCCCCCCNc1ccc(C(=O)O)cc1S(=O)(=O)N(C)C [Compound 31, 3-(-N,N-Dimethylsulfamoyl)-4-(6-methoxyhexylamino)benzoic Acid] | – | > 250 | – | – | did not show any NKCC1 inhibition; also recorded: Inactive | did not show any NKCC1 inhibition; also recorded: Inactive
